{
  "source": "patent US20150320814A1",
  "about": "“NUTRACEUTICAL FORMULATION FOR TREATMENT OF ANXIETY AND DEPRESSION” (priority 2014, published 2015)",
  "origin": "cited, not measured here",
  "key": {"alpha brain waves": {"tested_on": "alpha brain waves", "settings": "sixty minutes after oral administration, volunteers"}, "[1]": {"settings": "in vivo"}, "GABA receptors": {"tested_on": "GABA receptors", "settings": "isolated from skullcap"}, "[2]": {"tested_on": "patients with major depression", "settings": "125-300 mg of magnesium with each meal and at bedtime"}, "[3]": {"tested_on": "patients with clinical depression", "settings": "patients with clinical depression treated with nicotinic acid"}},
  "data": [
    {"smiles": "NCCCC(=O)O", "note": "[GABA, gamma aminobutyric acid]", "values": [
      {"measurement": "alpha brain waves by electroencephalogram", "setting": "alpha brain waves", "result": "increases in alpha brain waves"}
    ]},
    {"smiles": "CCNC(=O)CC[C@H](N)C(=O)O", "note": "[Theanine, L-theanine]", "values": [
      {"measurement": "blood brain barrier passage", "setting": "[1]", "result": "passes through the blood brain barrier"}
    ]},
    {"smiles": "O=c1cc(-c2ccccc2)oc2cc(O)c(O)c(O)c12", "note": "[baicalein]", "values": [
      {"measurement": "activity at GABA receptors", "setting": "GABA receptors", "result": "agonists of GABA receptors"}
    ]},
    {"smiles": "O=C(O)[C@H]1O[C@@H](Oc2cc3oc(-c4ccccc4)cc(=O)c3c(O)c2O)[C@H](O)[C@@H](O)[C@@H]1O", "note": "[baicalin]", "values": [
      {"measurement": "activity at GABA receptors", "setting": "GABA receptors", "result": "agonists of GABA receptors"}
    ]},
    {"smiles": "[Mg+2]", "note": "[magnesium]", "values": [
      {"measurement": "recovery from major depression", "setting": "[2]", "result": "Rapid recovery"}
    ]},
    {"smiles": "O=C(O)c1cccnc1", "note": "[nicotinic acid]", "values": [
      {"measurement": "patients showing significant improvements in mood", "setting": "[3]", "result": "14 of 15"}
    ]}
  ]
}
